Source: PubChem BioAssay (NCI)
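All cell lines were grown in 96-well plates and treated with compound for 48 hours. Abbreviation: GI50, concentration required for 50% inhibition of growth. The concentration for full growth arrest is given as TGI.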

Experiments:
Assay in all cases: NCI anticancer screen, dose series, 48 h
786-0 renal = system: 786-0 renal
A498 renal = system: A498 renal
A549 NSCLC = system: A549 NSCLC
ACHN renal = system: ACHN renal
BT-549 breast = system: BT-549 breast
CCRF-CEM leukemia = system: CCRF-CEM leukemia
COLO 205 colon = system: COLO 205 colon
DU-145 prostate = system: DU-145 prostate
EKVX NSCLC = system: EKVX NSCLC
HCC-2998 colon = system: HCC-2998 colon
HCT-116 colon = system: HCT-116 colon
HCT-15 colon = system: HCT-15 colon
HL-60(TB) leukemia = system: HL-60(TB) leukemia
HOP-62 NSCLC = system: HOP-62 NSCLC
HOP-92 NSCLC = system: HOP-92 NSCLC
HS 578T breast = system: HS 578T breast
HT29 colon = system: HT29 colon
IGROV1 ovarian = system: IGROV1 ovarian
K-562 leukemia = system: K-562 leukemia
KM12 colon = system: KM12 colon
LOX IMVI melanoma = system: LOX IMVI melanoma
MCF7 breast = system: MCF7 breast
MDA-MB-231 breast = system: MDA-MB-231 breast
MDA-MB-435 = system: MDA-MB-435
MOLT-4 leukemia = system: MOLT-4 leukemia
NCI-H226 lung = system: NCI-H226 lung
NCI-H23 lung = system: NCI-H23 lung
NCI-H460 lung = system: NCI-H460 lung
NCI-H522 lung = system: NCI-H522 lung
NCI/ADR-RES ovarian = system: NCI/ADR-RES ovarian
OVCAR-3 ovarian = system: OVCAR-3 ovarian
OVCAR-4 ovarian = system: OVCAR-4 ovarian
OVCAR-5 ovarian = system: OVCAR-5 ovarian
OVCAR-8 ovarian = system: OVCAR-8 ovarian
PC-3 prostate = system: PC-3 prostate
RPMI-8226 leukemia = system: RPMI-8226 leukemia
RXF 393 renal = system: RXF 393 renal
SF-268 CNS = system: SF-268 CNS
SF-295 CNS = system: SF-295 CNS
SF-539 CNS = system: SF-539 CNS
SK-MEL-2 melanoma = system: SK-MEL-2 melanoma
SK-MEL-5 melanoma = system: SK-MEL-5 melanoma
SK-OV-3 ovarian = system: SK-OV-3 ovarian
SN12C renal = system: SN12C renal
SNB-19 CNS = system: SNB-19 CNS
SNB-75 CNS = system: SNB-75 CNS
SR leukemia = system: SR leukemia
SW-620 colon = system: SW-620 colon
TK-10 renal = system: TK-10 renal
U251 CNS = system: U251 CNS
UACC-62 melanoma = system: UACC-62 melanoma
UO-31 renal = system: UO-31 renal
CAKI-1 renal = system: CAKI-1 renal

## COC(=O)[C@@H](C)C[C@H](Cc1ccccc1)NC(=O)c1nc([C@@H](C[C@H](C(C)C)N(C)C(=O)[C@@H](NC(=O)[C@H]2CCCCN2C)C(C)C)OC(C)=O)sc1C
786-0 renal
  GI50: < 1.67 nM
  TGI: > 16700 nM
A498 renal
  GI50: < 1.67 nM
  TGI: > 3990 nM
A549 NSCLC
  GI50: 7.34 nM
  TGI: > 16700 nM
ACHN renal
  GI50: 5.85 nM
  TGI: > 16700 nM
BT-549 breast
  GI50: < 1.67 nM
  TGI: 56.8 nM
CCRF-CEM leukemia
  GI50: < 1.67 nM
  TGI: > 16700 nM
COLO 205 colon
  GI50: < 1.67 nM
  TGI: 9.26 nM
DU-145 prostate
  GI50: < 1.67 nM
  TGI: > 16700 nM
EKVX NSCLC
  GI50: 6.66 nM
  TGI: > 16700 nM
HCC-2998 colon
  GI50: < 1.67 nM
  TGI: > 16700 nM
HCT-116 colon
  GI50: < 1.67 nM
  TGI: > 9500 nM
HCT-15 colon
  GI50: 5.36 nM
  TGI: > 16700 nM
HL-60(TB) leukemia
  GI50: < 1.67 nM
  TGI: < 1.67 nM
HOP-62 NSCLC
  GI50: 1.86 nM
  TGI: > 16700 nM
HOP-92 NSCLC
  GI50: 3.23 nM
  TGI: 16500 nM
HS 578T breast
  GI50: 2.4 nM
  TGI: > 16700 nM
HT29 colon
  GI50: < 1.67 nM
  TGI: 88 nM
IGROV1 ovarian
  GI50: 1.7 nM
  TGI: > 16700 nM
K-562 leukemia
  GI50: < 1.67 nM
  TGI: > 16700 nM
KM12 colon
  GI50: < 1.67 nM
  TGI: > 16700 nM
LOX IMVI melanoma
  GI50: < 1.67 nM
  TGI: > 16700 nM
MCF7 breast
  GI50: < 1.67 nM
  TGI: > 16700 nM
MDA-MB-231 breast
  GI50: < 1.67 nM
  TGI: 441 nM
MDA-MB-435
  GI50: < 1.67 nM
  TGI: < 1.67 nM
MOLT-4 leukemia
  GI50: 2.25 nM
  TGI: > 16700 nM
NCI-H226 lung
  GI50: 27.5 nM
  TGI: > 16700 nM
NCI-H23 lung
  GI50: 3.02 nM
  TGI: > 16700 nM
NCI-H460 lung
  GI50: < 1.67 nM
  TGI: > 16700 nM
NCI-H522 lung
  GI50: < 1.67 nM
  TGI: < 1.67 nM
NCI/ADR-RES ovarian
  GI50: 52.1 nM
  TGI: > 16700 nM
OVCAR-3 ovarian
  GI50: < 1.67 nM
OVCAR-4 ovarian
  GI50: 17.9 nM
  TGI: > 16700 nM
OVCAR-5 ovarian
  GI50: 4.78 nM
  TGI: > 16700 nM
OVCAR-8 ovarian
  GI50: < 1.67 nM
  TGI: > 16700 nM
PC-3 prostate
  GI50: < 1.67 nM
  TGI: > 16700 nM
RPMI-8226 leukemia
  GI50: < 1.67 nM
  TGI: > 11400 nM
RXF 393 renal
  GI50: < 1.67 nM
  TGI: > 16700 nM
SF-268 CNS
  GI50: 4.72 nM
  TGI: > 16700 nM
SF-295 CNS
  GI50: < 1.67 nM
  TGI: > 16700 nM
SF-539 CNS
  GI50: 2.39 nM
  TGI: 8.22 nM
SK-MEL-2 melanoma
  GI50: < 1.67 nM
  TGI: > 16700 nM
SK-MEL-5 melanoma
  GI50: < 1.67 nM
  TGI: 56.5 nM
SK-OV-3 ovarian
  GI50: < 1.67 nM
  TGI: > 16700 nM
SN12C renal
  GI50: < 1.67 nM
  TGI: > 16700 nM
SNB-19 CNS
  GI50: < 1.67 nM
  TGI: > 16700 nM
SNB-75 CNS
  GI50: < 1.67 nM
  TGI: > 7570 nM
SR leukemia
  GI50: < 1.67 nM
  TGI: > 16700 nM
SW-620 colon
  GI50: < 1.67 nM
  TGI: > 16700 nM
TK-10 renal
  GI50: > 10400 nM
  TGI: > 16700 nM
U251 CNS
  GI50: < 1.67 nM
  TGI: > 16700 nM
UACC-62 melanoma
  GI50: < 1.67 nM
  TGI: > 16700 nM
UO-31 renal
  GI50: 11.8 nM
  TGI: > 16700 nM

## COc1ccc2c(CCCC(c3ccccc3)c3ccccc3)c3[n+](cc2c1OC)CCc1cc2c(cc1-3)OCO2
A498 renal
  GI50: 96.9 nM
  TGI: 996 nM
CAKI-1 renal
  GI50: 2270 nM
  TGI: 6510 nM
CCRF-CEM leukemia
  GI50: 453 nM
  TGI: 2560 nM
DU-145 prostate
  GI50: 470 nM
  TGI: 1720 nM
HS 578T breast
  GI50: 370 nM
  TGI: 2100 nM
HT29 colon
  GI50: 219 nM
  TGI: 1170 nM
K-562 leukemia
  GI50: 318 nM
  TGI: 1740 nM
MDA-MB-435
  GI50: 293 nM
  TGI: 1150 nM
MOLT-4 leukemia
  GI50: 376 nM
  TGI: 2070 nM
NCI/ADR-RES ovarian
  GI50: 4830 nM
  TGI: 38900 nM
SK-MEL-2 melanoma
  GI50: 271 nM
  TGI: 1110 nM
SK-MEL-5 melanoma
  GI50: 149 nM
  TGI: 284 nM
SK-OV-3 ovarian
  GI50: 303 nM
  TGI: 1050 nM
SW-620 colon
  GI50: 323 nM
  TGI: 1390 nM
TK-10 renal
  GI50: 324 nM
  TGI: 1290 nM
UACC-62 melanoma
  GI50: 243 nM
  TGI: 1060 nM
